Assay results as given in PMC6147116 (Journal of Enzyme Inhibition and Medicinal Chemistry, 2018).
Where two headings read alike, the source gives them in different places.

Assays:
[1] = target: T1, 17β-hydroxysteroid dehydrogenase type 1 (17β-HSD1) (Homo sapiens, UniProt P14061); assay: 17β-HSD1 inhibition, in vitro radiosubstrate incubation (E1 to E2), human placental cytosol; Dixon kinetic analysis; format: biochemical; conditions: for IC50: E1 substrate 1.0 µM, NADPH excess, read-out: 17β-HSD1 IC50 ± SD; for 17β-HSD1 inhibition mechanism: Dixon's plot; for 17β-HSD1 inhibition mechanism / Ki: cofactor excess; for Ki: from Dixon plot
T1 sequence (P14061 1-328): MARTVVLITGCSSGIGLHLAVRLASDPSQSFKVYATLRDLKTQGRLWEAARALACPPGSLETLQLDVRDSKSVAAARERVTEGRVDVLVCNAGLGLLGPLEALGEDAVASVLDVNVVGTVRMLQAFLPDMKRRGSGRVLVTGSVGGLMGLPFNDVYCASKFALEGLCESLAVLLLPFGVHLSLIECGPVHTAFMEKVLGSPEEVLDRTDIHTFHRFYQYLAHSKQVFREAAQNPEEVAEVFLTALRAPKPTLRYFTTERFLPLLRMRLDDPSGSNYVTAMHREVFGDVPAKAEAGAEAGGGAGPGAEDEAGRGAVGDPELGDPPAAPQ
Procedure: (§1) Enzyme inhibition studies were performed by in vitro radiosubstrate incubations using human term placenta cytosol and microsomas as enzyme sources. […] Relative conversions compared to non-inhibited controls (100%) were measured in the presence of 10 µM concentration of the test compound. […] Mechanistic and kinetic investigations were performed and inhibitory constants (Ki) were determined for selected compounds.
Inhibitors that bind to the steroid site of 17β-HSD1 can bind to both the free enzyme and the binary enzyme–cofactor complex by random kinetic mechanism.
(§2) Enzymatic incubations were carried out in the HEPES buffer medium at a final volume of 200
(§3) µl. The substrate was added to the incubate in 20 µl of a 25 v/v% propylene glycol in HEPES buffer solution, whereas test compounds were applied in 10 µl of dimethyl sulfoxide solution.
(§4) Incubations were performed at 37 °C and terminated by cooling and the addition of organic solvents of the subsequent extraction procedure. Control samples with no inhibitor and blank samples were incubated simultaneously. […]
The incubation time was 2.5 min. The product 17β-estradiol (E2, 5) was extracted with ethyl acetate and isolated by a TLC method (details are published in our earlier reference).
(§5) In the general procedure, incubations were performed as described. Concentrations of the substrates were 1.0 µM, and the test compounds were applied at 10 µM final concentration in the incubate. Relative conversions compared to non-inhibited controls (100%) were determined. The assays were performed in triplicate, and the mean value and the standard deviation (SD) were calculated. […]
(§6) these cases, conversions were measured at 10–15 different concentrations in the appropriate interval between 0.001–50 µM. IC50 results were calculated by using unweighted iterative least squares logistic curve fitting by means of the “absolute IC50 calculation“ function of the GraphPad Prism 4.0 software (GraphPad Software, Inc., San Diego, CA, USA).
(§7) Kinetic analyses were performed via measurement of the enzymatic transformation using different fixed substrate concentrations and varied inhibitor concentrations. The Dixon’s linear transformation (1/velocity vs. inhibitor concentration) was applied for evaluation and the inhibition constant (Ki) was determined from abscissa of intersection of the lines of different substrate concentrations. Mechanism of binding was identified according to the Dixon’s graphs and the secondary plot of slopes of the Dixon’s lines vs. 1/substrate […]
(§8) The inhibitor compounds were preincubated with the appropriate placenta fraction in a volume of 4.0 µl at 37 °C for various time periods (2.5-40 min). Following this procedure, samples were diluted with the incubation medium to 50-fold. Enzyme activity measurements

steroid sulfatase (STS) [2] = target: T2, steroid sulfatase (STS) (Homo sapiens, UniProt P08842); assay: STS inhibition, in vitro radiosubstrate incubation (release of E1 from E1S), human placental microsomes; Dixon kinetic analysis; format: biochemical; conditions: for STS inhibition mechanism: Dixon's plots; for IC50: E1S substrate 1.0 µM, read-out: STS IC50 ± SD; for Ki: from Dixon plot
T2 construct: from tissue; host or cells: human term placenta, microsomal fraction
T2 sequence (P08842 22-583): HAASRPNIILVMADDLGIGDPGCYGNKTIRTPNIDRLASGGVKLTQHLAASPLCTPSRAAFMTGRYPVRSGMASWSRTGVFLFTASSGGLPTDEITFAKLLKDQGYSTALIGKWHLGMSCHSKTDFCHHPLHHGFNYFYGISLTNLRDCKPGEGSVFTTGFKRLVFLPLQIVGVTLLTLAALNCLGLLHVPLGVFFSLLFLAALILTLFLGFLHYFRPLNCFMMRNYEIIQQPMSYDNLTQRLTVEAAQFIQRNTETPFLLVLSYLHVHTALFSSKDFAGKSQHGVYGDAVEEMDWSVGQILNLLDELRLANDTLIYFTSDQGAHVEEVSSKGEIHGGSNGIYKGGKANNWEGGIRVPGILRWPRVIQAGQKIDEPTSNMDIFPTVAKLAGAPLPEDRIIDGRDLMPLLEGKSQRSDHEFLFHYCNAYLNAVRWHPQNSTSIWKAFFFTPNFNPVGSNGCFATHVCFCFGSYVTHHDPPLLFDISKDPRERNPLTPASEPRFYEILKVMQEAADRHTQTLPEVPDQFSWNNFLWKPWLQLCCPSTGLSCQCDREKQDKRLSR
Procedure: as §1
Kinetic analyses of selected compounds 7a and 16c were performed by measurement of enzyme activities using different fixed substrate concentrations and varied inhibitor concentrations.
as §2, §3, §4
The incubation time was 2.5 min. […]
as §5, §6, §7
The inhibitor compounds were preincubated with the appropriate placenta fraction in a volume of 4.0 µl at 37 °C for various time periods (2.5-40 min). Following this procedure, […]

human aromatase = target: T3, human aromatase (Homo sapiens, UniProt P11511); assay: Aromatase inhibition, in vitro radiosubstrate incubation (testosterone to E2 conversion), human placental microsomes; format: biochemical; conditions: for remaining activity at 10 µM: 10 µM test compound, non-inhibited control 100%, mean ± SD, n = 3, read-out: Arom Rel.conv. ± SD
T3 construct: from tissue; host or cells: human term placenta, microsomal fraction
T3 sequence (P11511 1-503): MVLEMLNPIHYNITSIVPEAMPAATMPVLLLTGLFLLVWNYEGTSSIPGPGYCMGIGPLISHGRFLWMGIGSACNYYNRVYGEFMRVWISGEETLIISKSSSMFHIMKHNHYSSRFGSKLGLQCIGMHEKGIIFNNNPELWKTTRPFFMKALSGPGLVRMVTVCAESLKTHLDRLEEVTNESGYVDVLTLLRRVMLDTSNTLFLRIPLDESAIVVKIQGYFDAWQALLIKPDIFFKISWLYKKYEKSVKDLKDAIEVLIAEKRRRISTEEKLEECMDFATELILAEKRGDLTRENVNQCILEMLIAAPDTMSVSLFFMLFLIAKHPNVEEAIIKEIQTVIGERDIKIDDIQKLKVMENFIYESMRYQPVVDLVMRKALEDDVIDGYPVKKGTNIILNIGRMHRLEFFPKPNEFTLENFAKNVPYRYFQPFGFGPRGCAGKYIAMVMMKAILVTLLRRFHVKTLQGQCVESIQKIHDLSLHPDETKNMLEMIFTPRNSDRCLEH
Procedure: as §1, §2, §3
as §4, with “simultaneously. The radioactivity of the products formed was measured by means of liquid scintillation counting (LSC) and taken as indicator of the” for “simultaneously.”
In the aromatase assays the microsoma suspension was incubated with appropriate concentration of unlabelled testosterone (2) substrate spiked with [1,2,6,7-3H]testosterone tracer, and in the presence of 0.1 mM NADPH cofactor excess. (In this case, solution of the substrate was prepared with acetonitrile instead of propylene glycol.) Incubation time was 40 min. The incubation mixture was extracted with toluene, then the toluene phase was drained and washed with HEPES buffer. Aromatase products containing phenolic hydroxy group were extracted with 1.2 M sodium hydroxide solution from the toluene extract and the alkaline phase was measured in the LSC. […]
was extracted with toluene. […]
as §5, §6
as §7, with “the” for “the Dixon’s graphs and the secondary plot of slopes of the Dixon’s lines vs. 1/substrate”

steroid sulfatase (STS) [3] = target: T2, steroid sulfatase (STS); assay: STS inhibition reversibility test (preincubation with placental microsomes, 50-fold dilution); format: biochemical; conditions: preincubation 7a 1.5 μM, 16c 10 μM; for STS binding reversibility: 50-fold dilution, 20 min secondary incubation
[4] = target: T1, 17β-hydroxysteroid dehydrogenase type 1 (17β-HSD1); conditions: earlier paper of the authors; read-out: 17β-HSD1 IC50 ± SD; cited from earlier work
17β-HSD1 = target: T4, 17β-HSD1 (Homo sapiens, UniProt P14061); assay: 17β-HSD1 inhibition reversibility test (preincubation with placental cytosol, 50-fold dilution); format: biochemical; conditions: preincubation 10 μM, 2.5 and 20 min
T4 construct: from tissue; host or cells: human term placenta, cytosolic fraction
T4 sequence (P14061 1-328): T1 sequence (P14061 1-328)
Procedure: as §6, §7
as §8, with “measurements were started immediately for the 17β-HSD1 and after 20 min secondary incubation time to allow dissociation in the case of STS. […]” for “measurements”

aromatase enzyme = target: aromatase enzyme; design: method as in PMID 16039845; conditions: cited from earlier work

## C[C@]12CC[C@@H]3c4ccc(O)c(I)c4CC[C@H]3[C@@H]1CCC2=O [7a, 4-iodoestrone]
[1]
  IC50: 360 ± 250 nM
Steroid sulfatase (STS) [2]
  STS inhibition mechanism: competitive
  IC50: 230 ± 90 nM
  Ki: 360 nM
Steroid sulfatase (STS) [2]; from IC50 values
  STS affinity higher compared to the E1S substrate: 22 fold
  STS affinity increased compared to E1: 100 fold
Human aromatase
  remaining activity at 10 µM: 88 ± 2%
Steroid sulfatase (STS) [3]
  time in which irreversible binding to STS is nearly completed: ≤ 2.5 min
  STS binding reversibility: irreversible

## C[C@@]12CC[C@@H]3c4ccc(O)c(I)c4CC[C@H]3[C@@H]1CCC2=O [11a]
[4]
  IC50: 1000 ± 300 nM
[1]
  17β-HSD1 inhibition mechanism: competitive
  IC50: 380 nM
  Ki: 2200 nM
17β-HSD1
  17β-HSD1 binding reversibility: reversible
Steroid sulfatase (STS) [2]
  IC50: 6000 ± 1600 nM
Human aromatase
  remaining activity at 10 µM: 90 ± 7%

## C[C@]12CC[C@@H]3c4cc(Br)c(O)cc4CC[C@H]3[C@@H]1CCC2=O [6b, 2-Bromoestrone]
[1]
  IC50: 95 ± 31 nM
Steroid sulfatase (STS) [2]
  IC50: 2000 ± 400 nM
Human aromatase
  IC50: 8700 ± 2800 nM
Aromatase enzyme
  IC50: 2400 nM

## C[C@]12CC[C@@H]3c4cc(Cl)c(O)cc4CC[C@H]3[C@@H]1CCC2=O [6c, 2-Chloroestrone]
[1]
  IC50: 180 ± 20 nM
Steroid sulfatase (STS) [2]
  IC50: 2400 ± 400 nM
Human aromatase
  IC50: 6000 ± 1200 nM
Aromatase enzyme
  Ki: 130 nM
  enhancement in affinity to aromatase compared to E1: ~20 fold

## C[C@@]12CC[C@@H]3c4cc(I)c(O)c(I)c4CC[C@H]3[C@@H]1CCC2=O [12a]
[4]
  IC50: 380 ± 80 nM
[1]
  17β-HSD1 inhibition mechanism: competitive
  IC50: 1000 nM
  Ki: 940 nM
17β-HSD1
  17β-HSD1 binding reversibility: reversible
Steroid sulfatase (STS) [2]
  IC50: 2400 ± 500 nM
Human aromatase
  remaining activity at 10 µM: 91 ± 1%

## C[C@]12CCC[C@H]1[C@@H]1CCc3c(cc(Cl)c(O)c3Cl)[C@H]1CC2 [16c, 2,4-bis-chloro-17-deoxy-13α-estrone]
[1]; 10 µM test compound, non-inhibited control 100%, mean ± SD, n = 3
  17β-HSD1 Rel.conv. ± SD: 53 ± 2%
Steroid sulfatase (STS) [2]
  STS inhibition mechanism: competitive
  IC50: 1300 ± 400 nM
  Ki: 1900 nM
Human aromatase
  remaining activity at 10 µM: 82 ± 12%
Steroid sulfatase (STS) [3]
  time in which irreversible binding to STS is nearly completed: ≤ 2.5 min
  STS binding reversibility: irreversible
